Experimental data as given in patent publication US20240270809A1, “ORAL GLP RECEPTOR AGONISTS” (priority 2020, published 2024).
Positions of bridges follow the written chain, without caps; N, C: chain ends. Non-standard residues stand in square brackets, D forms with d. Residues, ends and D or L forms follow the SMILES beside them. *: point of attachment. Malonyl(2,2-Me2,histaminyl) = CC(C)(C(=O)NCCc1cnc[nH]1)C(=O)*; Ala(1H-tetrazol-5-yl) = N[C@@H](Cc1nnn[nH]1)C(=O)O; αMePhe(2-F) = C[C@](N)(Cc1ccccc1F)C(=O)O; αMeL = CC(C)C[C@](C)(N)C(=O)O; Nle = CCCC[C@H](N)C(=O)O; Aib = CC(C)(N)C(=O)O

What was measured:
human GLP2 receptor = target: T1, human GLP2 receptor (Homo sapiens, UniProt O95838); experiment: cAMP accumulation assay, functional agonism of human GLP2 receptor; type: cell-based; settings: HEK cells infected with human GLP2 receptor BacMam virus, HTRF cAMP; for Emax: HEK293, read-out: Human GLP-2R agonist cAMP Emax; for EC50: read-out: Human GLP-2R agonist cAMP pEC50 (converted)
T1 construct: expressed in transfected cells; host or cells: HEK cells, BacMam virus transduction
T1 sequence (O95838 1-553): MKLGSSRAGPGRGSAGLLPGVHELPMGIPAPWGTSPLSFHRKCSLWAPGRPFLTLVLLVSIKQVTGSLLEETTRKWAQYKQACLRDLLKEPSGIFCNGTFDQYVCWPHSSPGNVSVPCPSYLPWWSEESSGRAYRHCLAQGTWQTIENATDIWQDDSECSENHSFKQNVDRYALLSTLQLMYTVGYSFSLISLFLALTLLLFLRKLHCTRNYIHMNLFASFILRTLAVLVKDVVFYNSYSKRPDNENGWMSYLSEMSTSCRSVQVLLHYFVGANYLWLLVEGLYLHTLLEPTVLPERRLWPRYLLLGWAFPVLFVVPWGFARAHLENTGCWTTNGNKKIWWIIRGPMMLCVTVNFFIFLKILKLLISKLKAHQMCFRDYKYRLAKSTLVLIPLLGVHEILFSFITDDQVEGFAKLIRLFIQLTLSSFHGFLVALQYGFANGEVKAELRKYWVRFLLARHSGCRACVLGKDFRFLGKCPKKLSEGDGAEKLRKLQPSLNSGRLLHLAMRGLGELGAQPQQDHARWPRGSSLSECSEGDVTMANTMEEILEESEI
Outline: (§1)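 cAMP read by HTRF detection reagents in lysis buffer following 45 min agonist exposure at 37 °C. Cells: frozen HEK transduced for 24 h with GLP1 or GLP2 receptor BacMam, suspended in HBSS plus 0.5 mM IBMX.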

human GLP1 receptor = target: T2, human GLP1 receptor (Homo sapiens, UniProt P43220); experiment: cAMP accumulation assay, functional agonism of human GLP1 receptor; type: cell-based; settings: HEK cells infected with human GLP1 receptor BacMam virus, HTRF cAMP; for Emax: HEK293, read-out: Human GLP-1R agonist cAMP Emax; for EC50: read-out: Human GLP-1R agonist cAMP pEC50 (converted)
T2 construct: expressed in transfected cells; host or cells: HEK cells, BacMam virus transduction
T2 sequence (P43220 24-463): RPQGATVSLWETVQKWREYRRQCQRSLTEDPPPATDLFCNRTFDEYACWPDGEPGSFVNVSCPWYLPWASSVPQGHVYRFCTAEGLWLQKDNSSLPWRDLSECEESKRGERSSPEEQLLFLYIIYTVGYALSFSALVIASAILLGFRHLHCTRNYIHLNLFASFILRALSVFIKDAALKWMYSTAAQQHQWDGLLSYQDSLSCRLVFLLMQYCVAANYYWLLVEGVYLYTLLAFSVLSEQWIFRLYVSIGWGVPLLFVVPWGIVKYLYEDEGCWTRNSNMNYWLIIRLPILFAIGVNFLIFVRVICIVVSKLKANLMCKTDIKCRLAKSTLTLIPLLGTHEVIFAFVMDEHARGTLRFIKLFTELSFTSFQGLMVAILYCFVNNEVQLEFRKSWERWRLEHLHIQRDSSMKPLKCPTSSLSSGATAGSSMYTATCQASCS
Outline: as §1

mouse GLP2 receptor = target: T3, mouse GLP2 receptor (Mus musculus, UniProt Q5IXF8); experiment: cAMP accumulation assay, functional agonism of mouse GLP2 receptor; type: cell-based; settings: HEK cells transiently transfected with mouse GLP2 receptor, HTRF cAMP; for Emax: HEK293, read-out: Mouse GLP-2R agonist cAMP Emax; for EC50: read-out: Mouse GLP-2R agonist cAMP pEC50 (converted)
T3 construct: expressed in transfected cells; host or cells: HEK cells, transient transfection with GeneJuice
T3 sequence (Q5IXF8 1-512): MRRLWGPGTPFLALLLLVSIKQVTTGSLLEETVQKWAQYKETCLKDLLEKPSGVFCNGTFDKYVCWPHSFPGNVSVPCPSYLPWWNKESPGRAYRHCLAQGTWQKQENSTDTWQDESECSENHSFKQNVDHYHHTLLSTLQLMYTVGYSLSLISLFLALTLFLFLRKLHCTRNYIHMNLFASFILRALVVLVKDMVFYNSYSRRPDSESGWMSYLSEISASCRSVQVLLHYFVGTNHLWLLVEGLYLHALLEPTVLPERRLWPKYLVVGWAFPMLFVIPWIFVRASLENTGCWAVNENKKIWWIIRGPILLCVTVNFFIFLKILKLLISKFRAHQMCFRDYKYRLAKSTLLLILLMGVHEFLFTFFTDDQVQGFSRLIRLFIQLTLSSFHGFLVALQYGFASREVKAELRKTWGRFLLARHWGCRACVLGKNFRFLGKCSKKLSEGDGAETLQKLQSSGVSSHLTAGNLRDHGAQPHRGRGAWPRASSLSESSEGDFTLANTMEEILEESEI
Outline: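 pEC50 values come from four-parameter fits of HTRF cAMP signal, read after lysis and 1 h RT incubation. Compounds were incubated 45 min at 37 °C with previously frozen, transiently transfected HEK cells (8000/well) in HBSS containing 0.5 mM IBMX.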

[1] = Stability of peptides in rat intestinal fluid (ratIF); settings: Sprague Dawley, undiluted rat small intestinal fluid (ratIF)
[2] = Stability of peptides in Fasted-State Simulated Intestinal Fluid (FaSSIF); type: in vitro ADME; settings: FaSSIF with 10 mg/ml pancreatin, 37° C.
Protocol: Stability of peptides was tested in Fasted-State Simulated Intestinal Fluid (FaSSIF) prepared according to manufacturer's protocol (Biorelevant, art.no. FFF01, pH 6.5). […] FaSSIF was pre-incubated for 15 min at 37° C. and spiked with test and reference item working solutions. Experiments were conducted in duplicate in a non-serial manner. The total incubation volume per replicate was 150 μl. Sampling time points for test items were 0, 0.5, 2, 5, 10, 15 and 30 min. All samples and calibration standards (prepared in FaSSIF) were precipitated by addition of 300 μl precipitant (ACN / 2% acetic acid / 0.2% HFBA, (precipitation reagent, PR)) containing internal standard (ISTD) to 150 μl sample. After incubation for 1 h at room temperature all samples were centrifuged for 10 min at 2,200×g (room temperature).

[3] = Stability of peptides in Fasted-State Simulated Gastric Fluid (FaSSGF); type: in vitro ADME; settings: FaSSGF with 0.1 mg/ml pepsin; t=30 mins, 37° C., pH 1.6, 0.1 mg/ml pepsin

Row | Structure (SMILES) | Emax (human GLP2 receptor) [%] | EC50 (human GLP2 receptor) [pM] | Emax (human GLP1 receptor) [%] | EC50 (human GLP1 receptor) [pM] | Emax (mouse GLP2 receptor) [%] | EC50 (mouse GLP2 receptor) [pM] | remaining at 0.5 h [1] [%] | remaining at 0.5 h ([2]; t=30 mins, pH 6.5, 10 mg/ml pancreatin) [%] | remaining at 0.5 h [3] [%] | remaining at 0.25 h ([2]; FaSSIF pH 6.5 with 10 mg/ml pancreatin, t = 15 mins) [%] | remaining at 0.25 h [1] [%]
1 | CCCC[C@H](NC(=O)[C@H](CCC(=O)O)NC(=O)[C@@H]1CC(=O)NCCCC[C@H](NC(=O)[C@H](Cc2nn[nH]n2)NC(=O)C(C)(C)C(=O)NCCc2c[nH]cn2)C(=O)N[C@@H](CO)C(=O)N[C@@](C)(Cc2ccccc2F)C(=O)N[C@@H](CO)C(=O)N1)C(=O)N[C@H](Cc1ccccc1)C(=O)N[C@H](C(=O)N[C@@](C)(CC(C)C)C(=O)N[C@@H](CC(C)C)C(=O)N[C@@H](CC(=O)O)C(=O)N[C@H]1CCC(=O)NCCCC[C@@H](C(=O)N[C@@H](CC(=O)O)C(=O)N[C@@H](Cc2ccccc2)C(=O)N[C@H](C(=O)N[C@H]2CCC(=O)NCCCC[C@@H](C(=O)N[C@H]3CCC(=O)NCCCC[C@@H](C(N)=O)NC(=O)[C@H]([C@@H](C)O)NC(=O)[C@H]([C@@H](C)CC)NC(=O)[C@H](CCCCN)NC3=O)NC(=O)[C@H]([C@@H](C)CC)NC(=O)[C@H](CC(C)C)NC(=O)[C@H](Cc3c[nH]c4ccccc34)NC2=O)[C@@H](C)CC)NC(=O)[C@H](C)NC(=O)[C@H](C)NC(=O)[C@H](CCCCN)NC1=O)[C@@H](C)O [Example 71] ({Malonyl(2,2-Me2,histaminyl)}-[Ala(1H-tetrazol-5-yl)]KS[αMePhe(2-F)]SDE[Nle][dF]T[αMeL]LDEKAAKDFIEWLIKEKITK-NH2; lactam 2-6, 14-18, 22-26, 27-31 (inferred); C-terminus assumed) | 103 | 25.1 | 98.2 | 25.1 | 89.7 | 2000 | 73.8 | – | – | – | –
2 | CCCC[C@H](NC(=O)[C@H](CCC(=O)O)NC(=O)[C@H](CC(=O)O)NC(=O)[C@H](CO)NC(=O)[C@H](Cc1ccccc1)NC(=O)[C@H](CO)NC(=O)CNC(=O)[C@H](CC(=O)O)NC(=O)C(C)(C)NC(=O)[C@@H](N)Cc1c[nH]cn1)C(=O)N[C@H]1CC(=O)NCCCC[C@@H](C(=O)N[C@@H](CC(C)C)C(=O)N[C@@H](CCCCN)C(=O)N[C@@H](C)C(=O)N[C@@H](C)C(=O)N[C@@H](CCCCN)C(=O)N[C@@H](CC(=O)O)C(=O)N[C@@H](Cc2ccccc2)C(=O)N[C@H](C(=O)N[C@@H](CC(N)=O)C(=O)N[C@@H](Cc2c[nH]c3ccccc23)C(=O)N[C@@H](CC(C)C)C(=O)N[C@H](C(=O)N[C@@H](CCC(N)=O)C(=O)N[C@H]2CCCCNC(=O)CC[C@@H](C(N)=O)NC(=O)[C@H]([C@@H](C)O)NC(=O)[C@H]([C@@H](C)CC)NC(=O)[C@H](CCCCN)NC2=O)[C@@H](C)CC)[C@@H](C)CC)NC(=O)[C@H](CC(C)C)NC(=O)[C@H]([C@@H](C)CC)NC(=O)[C@H]([C@@H](C)O)NC1=O [Example 112] (H-H[Aib]DGSFSDE[Nle]DTILKLKAAKDFINWLIQKKITE-NH2; lactam 11-15, 29-33 (inferred); C-terminus assumed) | 102 | 158 | 92.6 | 10000 | 99.7 | 6310 | – | – | – | 40.7 | 24.5

Second part, the compound after the results:

Row | Emax (human GLP2 receptor) [%] | EC50 (human GLP2 receptor) [pM] | Emax (human GLP1 receptor) [%] | EC50 (human GLP1 receptor) [pM] | Emax (mouse GLP2 receptor) [%] | EC50 (mouse GLP2 receptor) [pM] | remaining at 0.5 h [1] [%] | remaining at 0.5 h ([2]; t=30 mins, pH 6.5, 10 mg/ml pancreatin) [%] | remaining at 0.5 h [3] [%] | remaining at 0.25 h ([2]; FaSSIF pH 6.5 with 10 mg/ml pancreatin, t = 15 mins) [%] | remaining at 0.25 h [1] [%] | Structure (SMILES)
3 | 103 | 31.6 | 96.2 | 50.1 | 100 | 5010 | 41.3 | – | – | – | – | CCCC[C@H](NC(=O)[C@H](CCC(=O)O)NC(=O)[C@@H]1CC(=O)NCCCC[C@H](NC(=O)[C@H](CC(=O)O)NC(=O)C(C)(C)NC(=O)[C@@H](N)Cc2c[nH]cn2)C(=O)N[C@@H](CO)C(=O)N[C@@H](Cc2ccccc2)C(=O)N[C@@H](CO)C(=O)N1)C(=O)N[C@H](Cc1ccccc1)C(=O)N[C@H](C(=O)N[C@@](C)(CC(C)C)C(=O)N[C@@H](CC(C)C)C(=O)N[C@@H](CC(=O)O)C(=O)N[C@H]1CCC(=O)NCCCC[C@@H](C(=O)N[C@@H](CC(=O)O)C(=O)N[C@@H](Cc2ccccc2)C(=O)N[C@H](C(=O)N[C@H]2CCC(=O)NCCCC[C@@H](C(=O)N[C@H](C(=O)N3CCC[C@H]3C(N)=O)[C@@H](C)O)NC(=O)[C@H]([C@@H](C)CC)NC(=O)[C@H](CC(C)C)NC(=O)[C@H](Cc3c[nH]c4ccccc34)NC2=O)[C@@H](C)CC)NC(=O)[C@H](C)NC(=O)[C@H](C)NC(=O)[C@H](CCCCN)NC1=O)[C@@H](C)O [Example 29] (H-H[Aib]DKSFSDE[Nle][dF]T[αMeL]LDEKAAKDFIEWLIKTP-NH2; lactam 4-8, 16-20, 24-28 (inferred); C-terminus assumed)
4 | 104 | – | 96.7 | – | 101 | – | – | 51.1 | 100 | – | – | CCCC[C@H](NC(=O)[C@H](CCC(=O)O)NC(=O)[C@@H]1CC(=O)NCCCC[C@H](NC(=O)[C@H](CC(=O)O)NC(=O)C(C)(C)NC(=O)[C@@H](N)Cc2c[nH]cn2)C(=O)N[C@@H](CO)C(=O)N[C@@H](Cc2ccccc2)C(=O)N[C@@H](CO)C(=O)N1)C(=O)N[C@H](Cc1ccccc1)C(=O)N[C@H](C(=O)N[C@@](C)(CC(C)C)C(=O)N[C@@H](CC(C)C)C(=O)N[C@@H](CC(=O)O)C(=O)N[C@H]1CCC(=O)NCCCC[C@@H](C(=O)N[C@@H](CC(=O)O)C(=O)N[C@@H](Cc2ccccc2)C(=O)N[C@H](C(=O)N[C@H]2CCC(=O)NCCCC[C@@H](C(=O)N[C@H](C(=O)N[C@@H](CCCCN)C(=O)N3CCC[C@H]3C(N)=O)[C@@H](C)O)NC(=O)[C@H]([C@@H](C)CC)NC(=O)[C@H](CC(C)C)NC(=O)[C@H](Cc3c[nH]c4ccccc34)NC2=O)[C@@H](C)CC)NC(=O)[C@H](C)NC(=O)[C@H](C)NC(=O)[C@H](CCCCN)NC1=O)[C@@H](C)O [Example 30] (H-H[Aib]DKSFSDE[Nle][dF]T[αMeL]LDEKAAKDFIEWLIKTKP-NH2; lactam 4-8, 16-20, 24-28; N-terminus and C-terminus assumed)
5 | 103 | 39.8 | 98.3 | 15.8 | 102 | 158 | 24.8 | – | – | – | – | CCCC[C@H](NC(=O)[C@H](CCC(=O)O)NC(=O)[C@@H]1CC(=O)NCCCC[C@H](NC(=O)[C@H](CC(=O)O)NC(=O)C(C)(C)NC(=O)[C@@H](N)Cc2c[nH]cn2)C(=O)N[C@@H](CO)C(=O)N[C@@](C)(Cc2ccccc2F)C(=O)N[C@@H](CO)C(=O)N1)C(=O)N[C@H](Cc1ccccc1)C(=O)N[C@H](C(=O)N[C@@](C)(CC(C)C)C(=O)N[C@@H](CC(C)C)C(=O)N[C@@H](CC(=O)O)C(=O)N[C@H]1CCC(=O)NCCCC[C@@H](C(=O)N[C@@H](CC(=O)O)C(=O)N[C@@H](Cc2ccccc2)C(=O)N[C@H](C(=O)N[C@H]2CCC(=O)NCCCC[C@@H](C(=O)N[C@H](C(=O)N[C@@H](CCCCN)C(N)=O)[C@@H](C)O)NC(=O)[C@H]([C@@H](C)CC)NC(=O)[C@H](CC(C)C)NC(=O)[C@H](Cc3c[nH]c4ccccc34)NC2=O)[C@@H](C)CC)NC(=O)[C@H](C)NC(=O)[C@H](C)NC(=O)[C@H](CCCCN)NC1=O)[C@@H](C)O [Example 31] (H-H[Aib]DKS[αMePhe(2-F)]SDE[Nle][dF]T[αMeL]LDEKAAKDFIEWLIKTK-NH2; lactam 4-8, 16-20, 24-28)
